What was measured:
[1] = system: 3D7 parasite cultures; experiment: Time of drug killing; format: cell-based, Plasmodium falciparum; conditions: 80nM WM4, 40nM WM5, 5nM WM382, added to early rings
Procedure: 3D7 parasite cultures were synchronized using 5% sorbitol (Sigma) twice at 46 h intervals then again when the culture was a mix of late schizonts and early rings. […] The parasitemia of each culture was quantitated every 8 h for 48 h by collecting 50 μL samples for counting by flow cytometry (as previously described). The developmental stage of the parasites was confirmed at each time point by microscopic examination of Giemsa stained thin blood films. Media and compound were replaced at the 32 h time point.

[2] = system: P. falciparum schizonts (3D7); experiment: P. falciparum schizont egress inhibition assay; format: cell-based, Plasmodium falciparum; conditions: compared with control
Procedure: Parasites purified by magnet separation (MACS; Miltenyi Biotec) were eluted into complete RPMI containing 1 nM Compound 1 (C1) to prevent further egress and synchronize egress to within a 5 min window ([Pino et al., 2017]). When schizont preparations were fully mature, the C1 was washed out with warm complete RPMI-HEPES medium and schizonts transferred to a microscopy chamber for live video time lapse (1 frame per 0.5 s) imaging under DIC conditions using a Zeiss Live Cell Axio observer microscope with x63 oil immersion objective and Zen Blue software used for image capture. Videos (Videos S1 and S2) were processed using Fiji (https://www.nature.com/articles/nmeth.2019). Total parasite numbers and egress events were calculated over 5 min window and expressed as average ± SD of 3 replicate experiments. Because the purified late-stage parasites cannot be fully synchronized to egress within the observation time window, only a proportion of the schizonts will egress during the period of observation. Because all treatment groups originated from the same culture (ie those treated with compound and DMSO vehicle control) the developmental stage is consistent between treatments and the difference in egress quantitation can be attributable to the drug treatment.

[3] = system: P. falciparum merozoites (3D7); experiment: Invasion assay; format: cell-based, Plasmodium falciparum; conditions: 40 nM WM4; 2.5 nM WM382; merozoites released by mechanical rupture
Procedure: Late-stage parasites (> 40 h post invasion) were enriched by magnet separation (MACS; Miltenyi Biotec) and allowed to develop to fully segmented schizont-stage parasites. To prevent schizont rupture and merozoites release, control parasites were incubated with 1 μM compound 1 (C1). […] Filtrate containing purified merozoites was immediately added to fresh erythrocytes (70%–80% hematocrit), incubated in a shaker (1,100 rpm) at 37°C for 20 min to allow invasion of host cells, and then diluted to 2% hematocrit. After 24 h incubation at 37°C, invasion was evaluated by measuring parasitemia by microscopy (Giemsa-stained thin smears) and flow cytometry (100,000 cells counted with FACSCalibur, BD).

[4] = system: protein processing by PMIX and PMX in P. falciparum; experiment: Processing inhibition assays (immunoblot of merozoites and supernatants); format: cell-based, Plasmodium falciparum; conditions: WM4 40 nM, WM382 2.5 nM; for AMA1 processing in merozoites / ASP processing / MTRAP processing / PMIX processing in parasites / RAP1 processing / RON3 processing / Rh1 processed fragments, release into the supernatant / SERA5 processing: E64 10 μM
Procedure: Processing inhibition assays were performed as previously described ([Boyle et al., 2010]). Synchronized late trophozoite/early schizont cultures to which protease inhibitors had already been added, were passed over LD magnetic columns (Miltenyi Biotech) to remove uninfected erythrocytes. The cysteine protease inhibitor E64 (Sigma) was used at 10 μM. […] A control dish without any protease inhibitor was also included. Parasites were eluted from columns with complete RPMI 1640 culture medium to which the appropriate inhibitor at the same concentration had been added. Eluted parasites were adjusted to 5x10^6 schizonts/mL and 150 ul added per well of a 96-well flat-bottomed culture dish. […] Parasites from each condition were spun at 10000 g/10 min so that merozoite and supernatant fractions could be separately collected. Proteins from both fractions were extracted with Reducing sample buffer and separated on 4%–12% or 3%–8% acrylamide gels (NuPAGE, Invitrogen).

[5] = system: P. falciparum strains resistant to chloroquine, mefloquine, artemisinin, and atovaquone; experiment: EC50 for P. falciparum strains resistant to known antimalarials; format: cell-based, Plasmodium falciparum; conditions: Figure S2
Procedure: After 72 h incubation at 37°C each well was fixed at room temperature for 30 min with 50 μL of 0.25% glutaraldehyde (ProSciTech) diluted in PBS. Following centrifugation at 1200 rpm for 1 min, supernatants were discarded and parasites were stained with 50 μL of 5X SYBR Green (Invitrogen) diluted in PBS. 50,000 cells were counted by flow cytometry using a Cell Lab Quanta SC – MPL Flow Cytometer (Beckman Coulter) ([Bacon et al., 2007]). Growth was expressed as a percentage of the parasitemia obtained using a vehicle control. All samples were tested in triplicate. EC50 values were determined using GraphPad Prism.

[6] = target: recombinant PMX protein (rPMX) (Plasmodium falciparum, UniProt Q8IAS0); experiment: biochemical
Sequence of recombinant PMX protein (rPMX) (Q8IAS0 222-573): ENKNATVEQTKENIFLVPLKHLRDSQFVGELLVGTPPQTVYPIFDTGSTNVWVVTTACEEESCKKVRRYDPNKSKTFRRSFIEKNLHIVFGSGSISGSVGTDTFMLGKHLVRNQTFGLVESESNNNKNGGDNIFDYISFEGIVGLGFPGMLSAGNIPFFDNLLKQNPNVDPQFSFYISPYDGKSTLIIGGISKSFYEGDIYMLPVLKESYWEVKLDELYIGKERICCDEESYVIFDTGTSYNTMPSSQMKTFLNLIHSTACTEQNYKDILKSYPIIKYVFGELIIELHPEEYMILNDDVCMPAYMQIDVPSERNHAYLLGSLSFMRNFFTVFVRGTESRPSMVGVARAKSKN
Procedure: All wells were backfilled to 200 nL DMSO such that it remains constant across the assay plates (1% final). IC50 values were calculated by Dotmatics 5.3 and Spotfire 7.11.1 software using a nonlinear regression four-parameter fit analysis. The equation used is sigmoidal dose response (variable slope), Y = bottom + (top − bottom)/(1+10((logEC50 − X) × Hill Slope)). Compound Ki values were calculated from the IC50s using the Cheng-Prusoff equation, Ki = IC50/(1 + [S]/Km).
All compound potency assays were conducted in 20 μl total volume. For each assay, 10 μl of recombinant enzymes in respective assay buffers (Table) were dispensed into compound containing assay plates using a Multidrop Combi dispenser and allowed to incubate for 15 min. The reactions were started with a further 10 μl addition of FRET peptide substrates and reactions incubated at 37 °C for various times (Table).Samples were excited at 340 nm and fluorescence emission measured at 492 nm using an Envision fluorescence plate reader (Perkin-Elmer).

Compound	stage of arrest of blood-stage development [1]	egress of merozoites from the erythrocyte [2]	ability of merozoites to invade erythrocytes [3]	AMA1 processing in merozoites [4]	ASP processing [4]	MTRAP processing [4]	PMIX processing in parasites [4]	RAP1 processing [4]	RON3 processing [4]	Rh1 processed fragments, release into the supernatant [4]	SERA5 processing [4]	EBA140 processing [4]	EBA175 processing [4]	EBA181 processing [4]	MSP1 cleavage at the known SUB1 sites [4]	MSP1 cleavage by SUB2 [4]	PMX processing in the parasite [4]	Rh5 processing [4]	Ripr processing [4]	SUB2 second processing event [4]	other results
CC(NC(=O)c1cccc(C(c2ccccc2)N2C(=N)NC(C)(C(C)C)CC2=O)c1)c1ccccc1 (racemic) [WM4]	arrested at late schizont stage	potently inhibited egress of merozoites	significantly less able to invade	inhibited cleavage	ASP was processed	did not inhibit its processing	not inhibited	processing of RAP1 to p69 was inhibited	did not block processing	the large fragment cleaved by ROM4 was not released into the supernatant	accumulation of unprocessed SERA5	inhibited by both compounds	inhibited a cleavage event	a predominant unprocessed form was evident	inhibited	also inhibited	blocked cleavage of PMX	blocked processing of Rh5	inhibited	inhibited this second processing event	processing of Rh2a, Rh2b and Rh4 [4]: significantly inhibited processing; cross-resistance in drug resistant P. falciparum strains [5]: no cross-resistance; IC50 [6]: 0.81 nM; Ki [6]: 0.5 ± 0.2 nM
CCC1(CC)CC(=O)N([C@@H]2CCOc3ccc(C(=O)N[C@H]4CC(C)(C)Oc5ccccc54)cc32)C(=N)N1 [WM382]	arrested at late schizont stage	potently inhibited egress of merozoites	unable to invade erythrocytes	inhibited cleavage	cleavage was inhibited	inhibited processing, although not completely	inhibited processing	prevented production of both processed forms	did and the full-length protein, as well as an additional processed product (p55), were detected	the large fragment cleaved by ROM4 was not released into the supernatant	accumulation of unprocessed SERA5	inhibited by both compounds	inhibited a cleavage event	a predominant unprocessed form was evident	inhibited	higher activity	blocked cleavage of PMX	blocked processing of Rh5	inhibited	inhibited this second processing event	processing of Rh2a, Rh2b and Rh4 [4]: significantly inhibited processing; cross-resistance in drug resistant P. falciparum strains [5]: no cross-resistance; IC50 [6]: 0.06 nM; Ki [6]: 0.035 ± 0.008 nM

Reference: article PMC7146544, “Dual Plasmepsin-Targeting Antimalarial Agents Disrupt Multiple Stages of the Malaria Parasite Life Cycle” (Cell Host & Microbe, 2020)
